Where two headings read alike, the source gives them in different places.
What was measured:
human mu opioid receptor [1] = molecular target: T1, human mu opioid receptor (Homo sapiens, UniProt P35372); test: Human mu GTP-Eu nucleotide exchange assay (agonist mediated activation, CHO-K1 membranes); format: biochemical; conditions: bound GTP-Eu relative to DAMGO (IA=100); read-out: intrinsic activity (IA), expressed as a percentage
T1 construct: host or cells: CHO-K1

[2] = system: loperamide-induced delayed gastric emptying; test: Rat gastric emptying assay (reversal of loperamide-induced delayed gastric emptying); format: in vivo; conditions: administered orally, loperamide 1 mg/kg s.c., gastric emptying model
Description: Assay 3: Rat Model of In Vivo Efficacy In this assay the efficacy of test compounds was evaluated in a model of gastrointestinal transit, which evaluates peripheral activity. This study was approved by the Institutional Animal Care and Use Committee at […]. and conformed to the Guide for the Care and Use of Laboratory Animals published by the National Academy of Sciences (©1996). a. Rat Gastric Emptying Assay Test compounds were evaluated in the rat gastric emptying assay to determine their ability to reverse loperamide-induced delayed gastric emptying. […] The administration of test compound was followed by subcutaneous administration of loperamide at a dose of 1 mg/kg or vehicle. Five minutes post loperamide or vehicle administration, a non-nutritive, non-absorbable charcoal meal was administered via oral gavage and animals were allowed free access to water for the sixty minute duration of the experiment. […] Gastric weight was then determined after removal of the ligatures. b. Data Analysis and Results Data was analyzed using the GraphPad Prism Software package (GraphPad Software, Inc., San Diego, Calif.). Percent reversal curves were constructed by non-linear regression analysis using the sigmoidal dose response (variable slope) model and best-fit ID50 values were calculated. […]

human mu opioid receptor [3] = molecular target: T1, human mu opioid receptor; test: Radioligand binding assay, human mu opioid receptor ([3H]-Diprenorphine displacement)
[4] = [3H]-Diprenorphine 0.5 nM, CHO-K1 membranes, read-out: pKi at the human mu opioid receptor (converted)

T1 sequence (P35372 whole entry): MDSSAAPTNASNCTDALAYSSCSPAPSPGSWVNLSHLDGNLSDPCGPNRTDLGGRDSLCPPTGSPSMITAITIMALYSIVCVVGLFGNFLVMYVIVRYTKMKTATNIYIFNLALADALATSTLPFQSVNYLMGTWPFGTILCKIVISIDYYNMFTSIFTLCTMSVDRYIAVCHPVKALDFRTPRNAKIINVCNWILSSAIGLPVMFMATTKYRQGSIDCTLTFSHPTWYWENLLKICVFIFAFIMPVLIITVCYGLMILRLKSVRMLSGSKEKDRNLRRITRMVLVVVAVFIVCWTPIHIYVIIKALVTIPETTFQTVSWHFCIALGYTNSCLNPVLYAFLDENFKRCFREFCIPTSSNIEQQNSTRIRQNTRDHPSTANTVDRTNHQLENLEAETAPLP

| Compound | Emax (human mu opioid receptor [1]) [%] | ID50, dose required for 50% reversal of the effects of loperamide [2] [mg/kg] | Ki (human mu opioid receptor [3]) [nM] | Ki (human mu opioid receptor [3]; [4]) [nM] |
| --- | --- | --- | --- | --- |
| NC(=O)c1cccc([C@H]2C[C@H]3CC[C@@H](C2)N3Cc2cn(C3CCCCC3)nn2)c1 [Example 1, 3-endo-[8-(1-Cyclohexyl-1H-[1,2,3]-triazol-4-ylmethyl)-8-azabicyclo[3.2.1]oct-3-yl]benzamide] | -4 | 0.13 | 0.0501 | – |
| NC(=O)c1cccc([C@H]2C[C@H]3CC[C@@H](C2)N3Cc2cn(C3CCC(F)(F)CC3)nn2)c1 [Example 4, 3-endo-{8-[1-(4,4-Difluorocyclohexyl)-1H-1,2,3-triazol-4-ylmethyl]-8-azabicyclo[3.2.1]oct-3-yl}benzamide] | 0 | 0.25 | 0.1 | – |
| CCCc1cn(CCN2[C@@H]3CC[C@H]2C[C@@H](c2cccc(C(N)=O)c2)C3)nn1 [Example 8, 3-endo-{8-[2-(4-Propyl-[1,2,3]-triazol-1-yl)-ethyl]-8-aza-bicyclo[3.2.1]oct-3-yl}benzamide] | -4 | – | – | 0.0794 |
| NC(=O)c1cccc([C@H]2C[C@H]3CC[C@@H](C2)N3CCCn2cc(-c3ccc(F)cc3F)nn2)c1 [Example 9, 3-endo-(8-{3-[4-(2,4-Difluorophenyl)-[1,2,3]-triazol-1-yl]-propyl}-8-azabicyclo[3.2.1]oct-3-yl)benzamide] | -1 | – | – | 0.0501 |
| NC(=O)c1cccc([C@H]2C[C@H]3CC[C@@H](C2)N3Cc2cncn2Cc2ccccc2)c1 [Example 11, 3-endo-[8-(3-Benzyl-1H-imidazol-4-ylmethyl)-8-aza-bicyclo[3.2.1]oct-3-yl]-benzamide] | 6 | – | – | 0.631 |
| CC(C)Cc1nc(CCCN2[C@@H]3CC[C@H]2C[C@@H](c2cccc(C(N)=O)c2)C3)no1 [Example 14, 3-endo-{8-[3-(5-Isobutyl-1,2,4-oxadiazol-3-yl)-propyl]-8-aza-bicyclo[3.2.1]oct-3-yl}benzamide] | -11 | – | – | 1.58 |

Reference: patent publication US8211894B2, “Heteroarylalkyl-8-azabicyclo[3.2.1]octane compounds as mu opioid receptor antagonists” (Theravance, Inc., priority 2007, dated 2012)
